Assay results published in patent US20210177814A1, “USE OF GUANABENZ OR DERIVATES THEREOF FOR THE TREATMENT OF TYPE I IFN-DEPENDENT PATHOLOGIES” (INSERM (Institut National de la Santé et de la Recherche …, priority 2018, published 2021).
“Also recorded” adds a separate entry of the source.

How the values were obtained:
TLR3 = biological target: T1, TLR3 (Mus musculus, UniProt Q99MB1); experiment: Cytokine production by sorted Flt3L-DC cDC1 activated with poly I:C LMW; format: cell-based; conditions: sorted cDC1, 10 μg/mL poly I:C LMW 6 h, GBZ 50 μM
T1 construct: endogenous in cells; host or cells: sorted cDC1 from Flt3L-differentiated mouse bone marrow cultures
T1 sequence (Q99MB1 26-905): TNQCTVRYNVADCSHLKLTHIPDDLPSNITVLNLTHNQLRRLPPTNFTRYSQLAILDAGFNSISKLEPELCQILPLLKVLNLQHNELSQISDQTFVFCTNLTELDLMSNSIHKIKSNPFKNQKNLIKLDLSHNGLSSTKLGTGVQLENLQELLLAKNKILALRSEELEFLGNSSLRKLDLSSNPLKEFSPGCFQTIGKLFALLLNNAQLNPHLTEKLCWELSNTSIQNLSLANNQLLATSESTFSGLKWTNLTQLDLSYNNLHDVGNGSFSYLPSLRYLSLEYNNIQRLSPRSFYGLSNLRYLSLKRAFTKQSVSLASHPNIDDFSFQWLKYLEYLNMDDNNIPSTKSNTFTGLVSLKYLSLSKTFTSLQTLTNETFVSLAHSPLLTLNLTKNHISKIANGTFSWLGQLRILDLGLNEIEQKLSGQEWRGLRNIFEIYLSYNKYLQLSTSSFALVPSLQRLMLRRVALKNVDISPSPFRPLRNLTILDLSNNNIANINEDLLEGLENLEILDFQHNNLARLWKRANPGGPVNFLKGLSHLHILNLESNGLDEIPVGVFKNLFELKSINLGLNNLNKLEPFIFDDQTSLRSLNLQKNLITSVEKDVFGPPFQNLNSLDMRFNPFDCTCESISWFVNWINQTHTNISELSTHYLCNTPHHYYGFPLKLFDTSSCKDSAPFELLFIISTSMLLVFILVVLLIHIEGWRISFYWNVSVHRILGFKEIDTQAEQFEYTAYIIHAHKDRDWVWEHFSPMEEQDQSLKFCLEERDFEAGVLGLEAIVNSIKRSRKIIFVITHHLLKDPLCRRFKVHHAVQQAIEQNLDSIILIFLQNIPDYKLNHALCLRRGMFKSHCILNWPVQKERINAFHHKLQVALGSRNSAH
Experimental: FIG. 1: Guanabenz inhibits TLR3 and TLR9 activation in mouse Flt3-L DCs and human blood pDCs. A) Sorted bone marrow derived Flt3L-DCs were activated for 6 h with 10 μg/mL poly I:C LMW (TLR3 in DC1) or 1 μM ODN 1585 (TLR9 in pDCs). GBZ was added at 50 μM and inhibited IFN-β and Interleukin-6 (IL-6) production in activated cells. B) hTLR4, hTLR3, hTLR9 and hTLR7 expressed in the reporter HEK-Blue™ cells are inhibited by GBZ. TLR-expressing HEK-Blue™ cells were respectively activated with 100 ng/mL LPS, 10 μg/mL poly I:C LMW, 2.5 μM ODN 2006 or 5 μg/mL imiquimod, respectively. GBZ was added at 50 μM. TLR activity was measured indirectly through SEAP activity as absorbance at 405 nm. […] Protein concentration of IFN-α and TNF-α secreted were measured at the indicated time points or at 16 h. […]
BM-derived DCs were differentiated in vitro from the bone marrow of 6-8 weeks old male mice, using either FLT3 ligand or GM-CSF. […] For sorted Flt3L-DCs, cells were gently harvested at day 7 with cold PBS 2% FCS, centrifuged 1200 rpm 5 min at 4° C., counted and stained with for 30 mins at 4° C. […]
Mouse IFN-β quantification in culture supernatant was performed using the Mouse Interferon Beta ELISA kit (PBL InterferonSource); mouse IL-6, TNFα, IL-10, human TNFα and human IFNα were quantified using ELISA kit (eBioscience) respectively, according to manufacturer instructions. […]

[1] = tested on: TLR9 signal transduction pathway; experiment: Phospho-flow detection of rpS6 phosphorylation after CpG exposure; format: cell-based; conditions: CAL-1 and human B cells, 15 min to 1 h of CpG exposure, data not shown
[2] = tested on: RIG-I like receptor (RLR) dsRNA sensing pathway; experiment: IRF3 activation and IFN-β expression in MEFs lipofected with poly(I:C); format: cell-based, mouse; conditions: WT and Gadd34-deficient
Experimental: FIG. 2: Interferon β (IFNb) production in response to cytosolic dsRNA (Poly I:C) in WT and Gadd34-deficient embryonic fibroblasts (MEFs) treated with Guanabenz.
(A) IFNb expression in response to lipofected dsRNA (poly I:C) was measured by qPCR (mRNA) or (B) by ELISA (secreted protein) after treatment with Guanabenz (GBZ). (C) Activation of the transcription IRF3 by phosphorylation that drives IFN-β mRNA expression was monitored by western blot in WT and Gadd34-deficient animals (ΔC/ΔC, KO or −/−) in response to lipofected poly I:C in presence of GBZ. (D) eIF2α A/A mutants MEFs (unable to phosphorylate eIF2α on Serine 52, that is targeted by GADD34 and to inhibit protein synthesis) were also tested for IFN-β production and IRF3 activation.

SMILES: NC(N)=N/N=C/c1c(Cl)cccc1Cl [GBZ, 2-(2,6-dichlorobenzylidene)-hydrazinecarboximidamide]
- IFN-β production (TLR3): nearly abrogated; also recorded: inhibited
- IL-6 production (TLR3): nearly abrogated; also recorded: inhibited
- rpS6 phosphorylation [1]: strong reduction
- IFN-β expression (mRNA by qPCR, secreted protein by ELISA) [2]: inhibited
- activation of IRF3 (phosphorylation, western blot) [2]: inhibited
- IFN-β expression (mRNA by qPCR, secreted protein by ELISA) ([2]; listed as Guanabenz): inhibit
- activation of IRF3 (phosphorylation, western blot) ([2]; listed as Guanabenz): inhibit
